Test results published in patent US9169241B2, “Quinolinyloxyphenylsulfonamides” (Max-Planck-Gesellschaft Zur Forderung der Wissenschaften …, priority 2009, dated 2015).
Read-outs that look alike come from different tables or passages of the source.

Columns and labels:
Format in all cases: cell-based
tumor cell = assay: Matrigel outgrowth assay/branching assay (Table Va)
In short: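 Invasive outgrowth into a 3 mg/ml Matrigel gel is judged from images taken after 48, 72 and 96 h of exposure to 3.125, 1.56 or 0.78 μM compound, with DMSO as control. Positive means total inhibition of branching.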

SF763 = assay: Cell vitality assay (ATP assay, CellTiter-Glo); settings: SF763, 72 h; Table IIa; read-out: IC50 ATP-Assay after 72 h SF763
In short: (§1)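 Viability is estimated from cellular ATP after 72 h of compound treatment at 1000 cells per well. The dilution series runs 12.5, 6.25, 3.125, 1.56, 0.78, 0.39 and 0.195 μM. Half-maximal values are expressed against DMSO-treated wells.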

C8161 = assay: Cell vitality assay (ATP assay, CellTiter-Glo); settings: Homo sapiens; C8161, 72 h; Table IIa; read-out: IC50 ATP-Assay after 72 h C8161
In short: as §1

A172 = assay: Cell vitality assay (ATP assay, CellTiter-Glo); settings: Homo sapiens, A 172; A172, 72 h; Table IIa; read-out: IC50 ATP-Assay after 72 h A172
In short: as §1

U138 = assay: Cell vitality assay (ATP assay, CellTiter-Glo); settings: U138, 72 h; Table IIa; read-out: IC50 ATP-Assay after 72 h U138
In short: as §1

viable cells in culture = assay: Cell viability assay at 10 μM (CellTiter-Glo, Table VII); settings: compound 10 μM, 72 h;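 also: graded A 0-20%; B 21-40%; C 41-60%; D over 60% viable cells relative to DMSO control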
In short: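 Cells were seeded at 1000 cells/well in 96-well plates in 100 μl culture medium and incubated for 72 h with 10 μM compound or a DMSO control. ATP content, which reflects metabolically active and therefore viable cells, was then determined by CellTiter-Glo luminescence (Promega) per the manufacturer's instructions and expressed relative to the DMSO control.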

Hs578T = assay: Wound healing migration assay; settings: Homo sapiens, Hs-578T; HS578T cell line; Table Ib
In short: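 Compound exposure at 12.5, 6.25 and 3.125 μM, with DMSO control, on scratch-wounded monolayers (150000 cells/24 well, overnight). Wound closure imaged by microscopy, fixed with crystal violet after 48 h or 72 h depending on cell line; IC50 is the concentration giving 50% wound size between t0 and t48/t72.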

MDA-MB231 = assay: Cell vitality assay (ATP assay, CellTiter-Glo); settings: Homo sapiens, MDA-MB-231
In short: as §1

[1] = Homo sapiens, C8161 cells, read-out: Total branching inhibition in Matrigel C8161
[2] = Homo sapiens, Hs-578T, Hs578T cells, read-out: Total branching inhibition in Matrigel Hs578T
[3] = U118 cells, read-out: Total branching inhibition in Matrigel U118
[4] = U138 cells, read-out: Total branching inhibition in Matrigel U138
[5] = Homo sapiens, HCT-116, HCT116 def, read-out: percentage (%) of viable cells HCT 116def
[6] = Homo sapiens, HCT-116, HCT116 wt, read-out: percentage (%) of viable cells HCT 116wt
[7] = Homo sapiens, HT-29, HT29, read-out: percentage (%) of viable cells HT29
[8] = Homo sapiens, NCI-H358, H358, read-out: percentage (%) of viable cells H358
[9] = Homo sapiens, NCI-H1650, H1650, read-out: percentage (%) of viable cells H1650
[10] = Homo sapiens, NCI-H1666, H1666, read-out: percentage (%) of viable cells H1666
[11] = Homo sapiens, NCI-H1975, H1975, read-out: percentage (%) of viable cells H1975
[12] = Homo sapiens, NCI-H1993, H1993, read-out: percentage (%) of viable cells H1993
[13] = Homo sapiens, A549, read-out: percentage (%) of viable cells A549
[14] = Homo sapiens, HCC827, read-out: percentage (%) of viable cells HCC827
[15] = Homo sapiens, SW480, read-out: percentage (%) of viable cells SW480
[16] = RKO, read-out: percentage (%) of viable cells RKO
[17] = MDA-MB231, 72 h, Table IIa, read-out: IC50 ATP-Assay after 72 h MDA-MB231

COc1cc2c(Oc3ccc(NS(=O)(=O)c4cccc(-c5ccccc5)c4)cc3F)ccnc2cc1OCCCN1CCCCC1 [Example 8, Biphenyl-3-sulfonic acid {3-fluoro-4-[6-methoxy-7-(3-piperidin-1-yl-propoxy)-quinolin-4-loxy]-phenyl}-amide]
IC50 (tumor cell; [1]): ≤ 5 µM
IC50 (tumor cell; [2]): ≤ 5 µM
IC50 (tumor cell; [3]): ≤ 5 µM
IC50 (tumor cell; [4]): ≤ 5 µM
IC50 (SF763): ≤ 12.5 µM
IC50 (C8161): ≤ 12.5 µM
IC50 (A172): ≤ 12.5 µM
IC50 (U138): ≤ 12.5 µM
viability at 10 µM (viable cells in culture; [5]): 0 to 20%
viability at 10 µM (viable cells in culture; [6]): 0 to 20%
viability at 10 µM (viable cells in culture; [7]): 21 to 40%
viability at 10 µM (viable cells in culture; [8]): 0 to 20%
viability at 10 µM (viable cells in culture; [9]): 0 to 20%
viability at 10 µM (viable cells in culture; [10]): 21 to 40%
viability at 10 µM (viable cells in culture; [11]): 0 to 20%
viability at 10 µM (viable cells in culture; [12]): 0 to 20%
viability at 10 µM (viable cells in culture; [13]): 41 to 60%
viability at 10 µM (viable cells in culture; [14]): 0 to 20%
viability at 10 µM (viable cells in culture; [15]): 0 to 20%
viability at 10 µM (viable cells in culture; [16]): 21 to 40%
IC50 (Hs578T): ≤ 12.5 µM

COc1cc2c(Oc3ccc(NS(=O)(=O)c4cc(F)ccc4F)cc3F)ccnc2cc1OCCCN1CCN(C)CC1 [Example 12, 2,5-Difluoro-N-(3-fluoro-4-{6-methoxy-7-[3-(4-methyl-piperazin-1-yl)-propoxy]-quinolin-4-yloxy}-phenyl)-benzenesulfonamide]
IC50 (tumor cell; [1]): ≤ 5 µM
IC50 (tumor cell; [2]): ≤ 5 µM
IC50 (tumor cell; [3]): ≤ 5 µM
IC50 (tumor cell; [4]): ≤ 5 µM
IC50 (A172): ≤ 12.5 µM
IC50 (MDA-MB231; cell vitality assay, MDA-MB231, Table IIc, read-out: IC50 MDA-MB231): ≤ 12.5 µM
viability at 10 µM (viable cells in culture; [5]): 21 to 40%
viability at 10 µM (viable cells in culture; [6]): 21 to 40%
viability at 10 µM (viable cells in culture; [7]): 21 to 40%
viability at 10 µM (viable cells in culture; [8]): 0 to 20%
viability at 10 µM (viable cells in culture; [9]): 21 to 40%
viability at 10 µM (viable cells in culture; [10]): 41 to 60%
viability at 10 µM (viable cells in culture; [11]): 41 to 60%
viability at 10 µM (viable cells in culture; [12]): 41 to 60%
viability at 10 µM (viable cells in culture; [13]): > 60%
viability at 10 µM (viable cells in culture; [14]): 21 to 40%
viability at 10 µM (viable cells in culture; [15]): 21 to 40%
viability at 10 µM (viable cells in culture; [16]): 0 to 20%
IC50 (Hs578T): ≤ 12.5 µM

COc1cc2c(Oc3ccc(NS(=O)(=O)c4cccc(Oc5ccccc5)c4)cc3F)ccnc2cc1OCCCN1CCN(C)CC1 [Example 14, N-(3-Fluoro-4-{6-methoxy-7-[3-(4-methyl-piperazin-1-yl)-propoxy]-quinolin-4-yloxy}-phenyl)-3-phenoxy-benzenesulfonamide]
IC50 (tumor cell; [1]): 5 to 50 µM
IC50 (tumor cell; [2]): 5 to 50 µM
IC50 (tumor cell; [3]): ≤ 5 µM
IC50 (tumor cell; [4]): 5 to 50 µM
IC50 (SF763): ≤ 12.5 µM
IC50 (C8161): ≤ 12.5 µM
IC50 (U138): 12.5 to 50 µM
IC50 (MDA-MB231; [17]): ≤ 12.5 µM
viability at 10 µM (viable cells in culture; [5]): 21 to 40%
viability at 10 µM (viable cells in culture; [6]): 0 to 20%
viability at 10 µM (viable cells in culture; [7]): 0 to 20%
viability at 10 µM (viable cells in culture; [8]): 21 to 40%
viability at 10 µM (viable cells in culture; [9]): 21 to 40%
viability at 10 µM (viable cells in culture; [10]): 41 to 60%
viability at 10 µM (viable cells in culture; [11]): 21 to 40%
viability at 10 µM (viable cells in culture; [12]): 0 to 20%
viability at 10 µM (viable cells in culture; [13]): 41 to 60%
viability at 10 µM (viable cells in culture; [14]): 21 to 40%
viability at 10 µM (viable cells in culture; [15]): 0 to 20%
viability at 10 µM (viable cells in culture; [16]): 0 to 20%

COc1cc2c(Oc3ccc(NS(=O)(=O)c4ccccc4[N+](=O)[O-])cc3F)ccnc2cc1OCCCN1CCN(C)CC1 [Example 21, N-(3-Fluoro-4-{6-methoxy-7-[3-(4-methyl-piperazin-1-yl)-propoxy]-quinolin-4-yloxy}-phenyl)-2-nitro-benzenesulfonamide]
IC50 (tumor cell; [1]): 5 to 50 µM
IC50 (tumor cell; [2]): ≤ 5 µM
IC50 (tumor cell; [3]): 5 to 50 µM
IC50 (tumor cell; [4]): 5 to 50 µM
IC50 (SF763): 12.5 to 50 µM
IC50 (C8161): 12.5 to 50 µM
IC50 (MDA-MB231; [17]): 12.5 to 50 µM
viability at 10 µM (viable cells in culture; [5]): 41 to 60%
viability at 10 µM (viable cells in culture; [6]): > 60%
viability at 10 µM (viable cells in culture; [7]): 21 to 40%
viability at 10 µM (viable cells in culture; [8]): 21 to 40%
viability at 10 µM (viable cells in culture; [9]): 41 to 60%
viability at 10 µM (viable cells in culture; [10]): 41 to 60%
viability at 10 µM (viable cells in culture; [11]): 41 to 60%
viability at 10 µM (viable cells in culture; [12]): 21 to 40%
viability at 10 µM (viable cells in culture; [13]): > 60%
viability at 10 µM (viable cells in culture; [14]): > 60%
viability at 10 µM (viable cells in culture; [15]): 21 to 40%
viability at 10 µM (viable cells in culture; [16]): 41 to 60%

COc1cc2c(Oc3ccc(NS(=O)(=O)c4ccccc4OC(F)(F)F)cc3F)ccnc2cc1OCCCN1CCN(C)CC1 [Example 25, N-(3-Fluoro-4-{6-methoxy-7-[3-(4-methyl-piperazin-1-yl)-propoxy]-quinolin-4-yloxy}-phenyl)-2-trifluoromethoxy-benzenesulfonamide]
IC50 (tumor cell; [1]): ≤ 5 µM
IC50 (tumor cell; [2]): ≤ 5 µM
IC50 (tumor cell; [3]): ≤ 5 µM
IC50 (tumor cell; [4]): 5 to 50 µM
IC50 (SF763): ≤ 12.5 µM
IC50 (C8161): ≤ 12.5 µM
IC50 (U138): ≤ 12.5 µM
IC50 (MDA-MB231; [17]): ≤ 12.5 µM
